Laboratory results: patent US6890736B1, “Methods for producing proteins in cultured cells” (Immunex Corporation, priority 2002, dated 2005)

Legend:
[1] = tested on: cell line 25H9 (CHO cells); experiment: Example 1: cell number (hemocytometer) and viability (trypan blue); format: cell-based, Chinese hamster
Experimental: The following experiment was designed to test whether decitabine can induce the production of a protein, in this case a recombinant soluble form of the human interleukin 1 receptor type II (IL-1-R-II), at either 31° C. or 34° C. Soluble versions of IL-1R-II and methods for producing it are described in U.S. Pat. No. 5,767,064. DNA encoding a soluble form of the human IL-1R-II was inserted into pG3.6, which is described in Morris et al. ((1998), Cytotechnology 28:9-17). This construct was used to transfect CHO cells to produce cell lines, including 25H9, that produce IL-1R-II protein.
(§1) About 2×10^6 cells of cell line 25H9 were inoculated into 30 milliliters of serum-free medium and incubated at the temperatures indicated in Table 1 in vented shake flasks. At the times indicated in Table 1, samples were taken from each flask to determine IL-1R-II titer, cell number, and cell viability. IL-1R-II protein titer was determined by ELISA assay. Cell number was determined by counting cells in a hemocytometer. Cell viability was determined by trypan blue staining and counting stained cells in a hemocytometer. Cumulative viable cell density (CVCD) is the area under the curve of a plot of the viable cell density versus time (in units of cells/ml/day). Productivity (pg of IL-1R-II/cell/day) was determined by dividing the protein titer on a particular day by the CVCD on the same day. Cells were fed with amino acids on days 2 and 5, and dextrose was added periodically in order to maintain levels above 2.0 g/L. All samples were done in duplicate, and the data shown is an average value.

[2] = tested on: cell line 25H9 (CHO cells that produce IL-1R-II protein); experiment: Example 2: optimization of temperature and decitabine concentration, IL-1R-II production; format: cell-based, Chinese hamster
Experimental: as §1
To determine an optimum temperature and decitabine concentration, three temperatures (30° C., 31° C., and 32° C.) and three decitabine concentrations (10 μM, 15 μM, and 20 μM) were tested. A 31° C. culture containing 0.5 mM sodium butyrate was grown as a control. […] See e.g. International Application Nos. WO 89/06686 and WO 87/05626. The experiment was performed as in Example 1 except that the inducer concentrations, temperatures, and days at which data was collected are as indicated in Table 2 and FIG. 1.

[3] = 31° C., 1 μM decitabine, day 10
[4] = 31° C., 5 μM decitabine, day 10
[5] = 31° C., 10 μM decitabine, day 0
[6] = 31° C., 10 μM decitabine, day 3
[7] = 31° C., 10 μM decitabine, day 5
[8] = 31° C., 10 μM decitabine, day 7
[9] = 31° C., 10 μM decitabine, day 10
[10] = 34° C., 1 μM decitabine, day 10
[11] = 34° C., 5 μM decitabine, day 10
[12] = 34° C., 10 μM decitabine, day 0
[13] = 34° C., 10 μM decitabine, day 3
[14] = 34° C., 10 μM decitabine, day 5
[15] = 34° C., 10 μM decitabine, day 7

Nc1ncn([C@H]2C[C@H](O)[C@@H](CO)O2)c(=O)n1 [decitabine, 5-aza-2′-deoxycytidine]
Cumulative Viable Cell Density ([1]; 31° C., 1 μM decitabine, day 0): 0 mL⁻¹ day⁻¹ | Viable Cell Density ([1]; 31° C., 1 μM decitabine, day 0): 1.8e+06 mL⁻¹ | Cumulative Viable Cell Density ([1]; 31° C., 1 μM decitabine, day 3): 8.3e+06 mL⁻¹ day⁻¹ | Viable Cell Density ([1]; 31° C., 1 μM decitabine, day 3): 3.7e+06 mL⁻¹ | Cumulative Viable Cell Density ([1]; 31° C., 1 μM decitabine, day 5): 1.7e+07 mL⁻¹ day⁻¹ | Viable Cell Density ([1]; 31° C., 1 μM decitabine, day 5): 5e+06 mL⁻¹ | Cumulative Viable Cell Density ([1]; 31° C., 1 μM decitabine, day 7): 2.77e+07 mL⁻¹ day⁻¹ | Viable Cell Density ([1]; 31° C., 1 μM decitabine, day 7): 5.7e+06 mL⁻¹ | Cumulative Viable Cell Density [1, 3]: 4.38e+07 mL⁻¹ day⁻¹ | Viable Cell Density [1, 3]: 5.1e+06 mL⁻¹ | Cumulative Viable Cell Density ([1]; 31° C., 5 μM decitabine, day 0): 0 mL⁻¹ day⁻¹ | Viable Cell Density ([1]; 31° C., 5 μM decitabine, day 0): 1.8e+06 mL⁻¹ | Cumulative Viable Cell Density ([1]; 31° C., 5 μM decitabine, day 3): 8.5e+06 mL⁻¹ day⁻¹ | Viable Cell Density ([1]; 31° C., 5 μM decitabine, day 3): 3.8e+06 mL⁻¹ | Cumulative Viable Cell Density ([1]; 31° C., 5 μM decitabine, day 5): 1.57e+07 mL⁻¹ day⁻¹ | Viable Cell Density ([1]; 31° C., 5 μM decitabine, day 5): 3.5e+06 mL⁻¹ | Cumulative Viable Cell Density ([1]; 31° C., 5 μM decitabine, day 7): 2.28e+07 mL⁻¹ day⁻¹ | Viable Cell Density ([1]; 31° C., 5 μM decitabine, day 7): 3.6e+06 mL⁻¹ | Cumulative Viable Cell Density [1, 4]: 4e+07 mL⁻¹ day⁻¹ | Viable Cell Density [1, 4]: 7.8e+06 mL⁻¹ | Cumulative Viable Cell Density [1, 5]: 0 mL⁻¹ day⁻¹ | Viable Cell Density [1, 5]: 1.8e+06 mL⁻¹ | Cumulative Viable Cell Density [1, 6]: 7.4e+06 mL⁻¹ day⁻¹ | Viable Cell Density [1, 6]: 3.1e+06 mL⁻¹ | Cumulative Viable Cell Density [1, 7]: 1.44e+07 mL⁻¹ day⁻¹ | Viable Cell Density [1, 7]: 3.9e+06 mL⁻¹ | Cumulative Viable Cell Density [1, 8]: 2.15e+07 mL⁻¹ day⁻¹ | Viable Cell Density [1, 8]: 3.3e+06 mL⁻¹ | Cumulative Viable Cell Density [1, 9]: 3.18e+07 mL⁻¹ day⁻¹ | Viable Cell Density [1, 9]: 3.6e+06 mL⁻¹ | Cumulative Viable Cell Density ([1]; 34° C., 1 μM decitabine, day 0): 0 mL⁻¹ day⁻¹ | Viable Cell Density ([1]; 34° C., 1 μM decitabine, day 0): 1.8e+06 mL⁻¹ | Cumulative Viable Cell Density ([1]; 34° C., 1 μM decitabine, day 3): 1.14e+07 mL⁻¹ day⁻¹ | Viable Cell Density ([1]; 34° C., 1 μM decitabine, day 3): 5.7e+06 mL⁻¹ | Cumulative Viable Cell Density ([1]; 34° C., 1 μM decitabine, day 5): 2.55e+07 mL⁻¹ day⁻¹ | Viable Cell Density ([1]; 34° C., 1 μM decitabine, day 5): 8.4e+06 mL⁻¹ | Cumulative Viable Cell Density ([1]; 34° C., 1 μM decitabine, day 7): 4.15e+07 mL⁻¹ day⁻¹ | Viable Cell Density ([1]; 34° C., 1 μM decitabine, day 7): 7.6e+06 mL⁻¹ | Cumulative Viable Cell Density [1, 10]: 5.69e+07 mL⁻¹ day⁻¹ | Viable Cell Density [1, 10]: 2.7e+06 mL⁻¹ | Cumulative Viable Cell Density ([1]; 34° C., 5 μM decitabine, day 0): 0 mL⁻¹ day⁻¹ | Viable Cell Density ([1]; 34° C., 5 μM decitabine, day 0): 1.8e+06 mL⁻¹ | Cumulative Viable Cell Density ([1]; 34° C., 5 μM decitabine, day 3): 1.16e+07 mL⁻¹ day⁻¹ | Viable Cell Density ([1]; 34° C., 5 μM decitabine, day 3): 5.9e+06 mL⁻¹ | Cumulative Viable Cell Density ([1]; 34° C., 5 μM decitabine, day 5): 2.47e+07 mL⁻¹ day⁻¹ | Viable Cell Density ([1]; 34° C., 5 μM decitabine, day 5): 7.2e+06 mL⁻¹ | Cumulative Viable Cell Density ([1]; 34° C., 5 μM decitabine, day 7): 3.81e+07 mL⁻¹ day⁻¹ | Viable Cell Density ([1]; 34° C., 5 μM decitabine, day 7): 6.3e+06 mL⁻¹ | Cumulative Viable Cell Density [1, 11]: 5.27e+07 mL⁻¹ day⁻¹ | Viable Cell Density [1, 11]: 3.4e+06 mL⁻¹ | Cumulative Viable Cell Density [1, 12]: 0 mL⁻¹ day⁻¹ | Viable Cell Density [1, 12]: 1.8e+06 mL⁻¹ | Cumulative Viable Cell Density [1, 13]: 9.8e+06 mL⁻¹ day⁻¹ | Viable Cell Density [1, 13]: 4.7e+06 mL⁻¹ | Cumulative Viable Cell Density [1, 14]: 1.93e+07 mL⁻¹ day⁻¹ | Viable Cell Density [1, 14]: 4.8e+06 mL⁻¹ | Cumulative Viable Cell Density [1, 15]: 2.73e+07 mL⁻¹ day⁻¹ | Viable Cell Density [1, 15]: 3.2e+06 mL⁻¹ | IL-1R-II produced at 31° C. versus 30° C. or 32° C. (FIG. 1) ([2]; 10 μM decitabine, 8 days): more IL-1R-II | IL-1R-II titer in 20 μM versus 10 μM or 15 μM decitabine ([2]; 30° C.): higher titer of IL-1R-II | IL1R-II Titer ([2]; 30° C., 10 μM decitabine, day 0): 0.0 µg/mL | IL1R-II Titer ([2]; 30° C., 10 μM decitabine, day 3): 68.2 µg/mL
